molecular target: T1, PRMT5/MEP50 (Homo sapiens, UniProt O14744); test: PRMT5 Biochemical Assay (PRMT5/MEP50 enzyme assay on peptide substrate, 3H-SAM Flashplate); settings: PRMT5/MEP50 4 nM, 3H-SAM 75 nM, peptide 40 nM, 30 min preincubation at 25 degrees Celsius
T1 construct: Flag-PRMT5; made in house; host or cells: Spodoptera frugiperda (SF9) insect cells, baculovirus (pDEST8)
Text: S-adenosylmethionine (SAM), S-adenosylhomocysteine (SAH), bicine, KCl, Tween20, dimethylsulfoxide (DMSO), bovine skin gelatin (BSG), and Tris(2-carboxyethyl)phosphine hydrochloride solution (TCEP) were purchased from Sigma-Aldrich at the highest level of purity possible. ^3H-SAM was purchase from American Radiolabeled Chemicals with a specific activity of 80 Ci/mmol. 384-well streptavidin Flashplates were purchased from PerkinElmer.
Peptide representative of human histone H4 residues 1-15 was synthesized with a C-terminal linker-affinity tag motif and a C-terminal amide cap by 21st Century Biochemicals. The peptide was high high-performance liquid chromatography (HPLC) purified to greater than 95% purity and confirmed by liquid chromatography mass spectrometry (LC-MS). The sequence was Ac-[…][K-Biot]-amide (SEQ ID NO.:3).
Full-length human PRMT5 (NM_006109.3) transcript variant 1 clone was amplified from a fetal brain cDNA library, incorporating flanking 5′ sequence encoding a FLAG tag ([…]) (SEQ ID NO.:4) fused directly to Ala 2 of PRMT5. Full-length human MEP50 (NM_024102) clone was amplified from a human testis cDNA library incorporating a 5′ sequence encoding a 6-histidine tag (MHHHHHH) (SEQ ID NO.:5) fused directly to Arg 2 of MEP50. The amplified genes were sublconed into pENTR/D/TEV (Life Technologies) and subsequently transferred by Gateway™ attL×attR recombination to pDEST8 baculvirus expression vector (Life Technologies).
Recombinant baculovirus and Baculovirus-Infected Insect Cells (BIIC) were generated according to Bac-to-Bac kit instructions (Life Technologies) and Wasilko, 2006, respectively. Protein over-expression was accomplished by infecting exponentially growing Spodoptera frugiperda (SF9) cell culture at 1.2×10^6 cell/ml with a 5000 fold dilution of BIIC stock. Infections were carried out at 27° C. for 72 hours, harvested by centrifugation, and stored at −80° C. for purification.
Flag-PRMT5/6His-MeP50 was eluted with 300 mM Imidazole in the same buffer. The purity of recovered protein was 87%. Reference: Wasilko, D. J. and S. E. Lee: “TIPS: titerless infected-cells preservation and scale-up” Bioprocess J., 5 (2006), pp. 29-32.
General Procedure for PRMT5/MEP50 Enzyme Assays on Peptide Substrates.
The assays were all performed in a buffer consisting of 20 mM Bicine (pH=7.6), 1 mM TCEP, 0.005% BSG, and 0.002% Tween20, prepared on the day of use. Compounds in 100% DMSO (1 ul) were spotted into a polypropylene 384-well V-bottom plates (Greiner) using a Platemate Plus outfitted with a 384-channel head (Thermo Scientific). DMSO (1 ul) was added to Columns 11, 12, 23, 24, rows A-H for the maximum signal control and 1 ul of SAH, a known product and inhibitor of PRMT5/MEP50, was added to columns 11, 12, 23, 24, rows I-P for the minimum signal control. A cocktail (40 ul) containing the PRMT5/MEP50 enzyme and the peptide was added by Multidrop Combi (Thermo-Fisher). The compounds were allowed to incubate with PRMT5/MEP50 for 30 min at 25 degrees Celsius, then a cocktail (10 ul) containing ^3H-SAM was added to initiate the reaction (final volume=51 ul). The final concentrations of the components were as follows: PRMT5/MEP50 was 4 nM, ^3H-SAM was 75 nM, peptide was 40 nM, SAH in the minimum signal control wells was 100 uM, and the DMSO concentration was 1%. The assays were stopped by the addition of non-radioactive SAM (10 ul) to a final concentration of 600 uM, which dilutes the ^3H-SAM to a level where its incorporation into the peptide substrate is no longer detectable. 50 ul of the reaction in the 384-well polypropylene plate was then transferred to a 384-well Flashplate and the biotinylated peptides were allowed to bind to the streptavidin surface for at least 1 hour before being washed three times with 0.1% Tween20 in a Biotek ELx405 plate washer. […]

T1 sequence (O14744 with tags, fused parts or gaps): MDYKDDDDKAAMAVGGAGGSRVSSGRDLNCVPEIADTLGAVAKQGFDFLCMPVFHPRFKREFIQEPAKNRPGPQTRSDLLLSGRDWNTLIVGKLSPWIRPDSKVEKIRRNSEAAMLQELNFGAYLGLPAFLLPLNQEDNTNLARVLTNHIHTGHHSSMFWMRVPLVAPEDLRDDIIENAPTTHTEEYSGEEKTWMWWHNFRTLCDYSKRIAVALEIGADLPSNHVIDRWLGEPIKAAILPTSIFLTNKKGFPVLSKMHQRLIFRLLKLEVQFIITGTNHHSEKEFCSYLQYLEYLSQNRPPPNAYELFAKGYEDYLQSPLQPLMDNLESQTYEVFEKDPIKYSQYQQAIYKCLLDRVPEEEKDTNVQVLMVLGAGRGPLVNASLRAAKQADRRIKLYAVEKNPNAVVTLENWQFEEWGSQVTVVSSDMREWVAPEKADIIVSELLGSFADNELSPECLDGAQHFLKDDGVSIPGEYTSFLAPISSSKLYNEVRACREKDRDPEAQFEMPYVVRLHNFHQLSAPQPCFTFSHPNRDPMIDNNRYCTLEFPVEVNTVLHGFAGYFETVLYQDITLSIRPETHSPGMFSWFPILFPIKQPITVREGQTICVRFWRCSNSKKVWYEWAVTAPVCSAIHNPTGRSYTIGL
T1 sequence (Q9BQA1 with tags, fused parts or gaps partner limits assumed): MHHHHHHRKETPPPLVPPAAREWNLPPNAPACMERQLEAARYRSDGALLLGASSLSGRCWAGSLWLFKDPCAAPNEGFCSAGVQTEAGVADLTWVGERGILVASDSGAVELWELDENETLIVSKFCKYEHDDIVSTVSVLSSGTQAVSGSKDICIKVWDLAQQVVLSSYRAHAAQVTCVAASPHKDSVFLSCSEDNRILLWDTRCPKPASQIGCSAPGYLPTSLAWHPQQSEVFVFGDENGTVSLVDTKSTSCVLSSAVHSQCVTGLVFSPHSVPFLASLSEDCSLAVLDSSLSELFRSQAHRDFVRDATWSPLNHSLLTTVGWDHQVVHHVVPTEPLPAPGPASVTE

Row | Compound | IC50 [µM]
1 | CC(=O)N1CC(Nc2cc(C(=O)NC[C@H](O)CN3CCc4cn[nH]c4C3)ncn2)C1 [Compound 3-44] | > 10
2 | Cc1nc2c(s1)CN(C[C@@H](O)CNC(=O)c1cc(NC3COC3)ncn1)CC2 [Compound 1-8, (S)—N-(2-hydroxy-3-(2-methyl-6,7-dihydrothiazolo[5,4-c]pyridin-5(4H)-yl)propyl)-6-(oxetan-3-ylamino)pyrimidine-4-carboxamide] | > 10
3 | CC(=O)N1CCC(Nc2cc(C(=O)NC[C@H](O)CN3CCc4ncccc4C3)ccn2)CC1 [Compound 2-20, (S)-2-((1-acetylpiperidin-4-yl)amino)-N-(3-(7,8-dihydro-1,6-naphthyridin-6(5H)-yl)-2-hydroxypropyl)isonicotinamide] | 0.101 to 1
4 | CC(=O)N1CCC(Nc2cc(C(=O)NC[C@H](O)CN3CCc4c(ncn4C)C3)ncn2)CC1 [Compound 3-35, (S)-6-((1-acetylpiperidin-4-yl)amino)-N-(2-hydroxy-3-(1-methyl-6,7-dihydro-1H-imidazo[4,5-c]pyridin-5(4H)-yl)propyl)pyrimidine-4-carboxamide] | > 10
5 | Cn1ncc2c1CCCN2C[C@@H](O)CNC(=O)c1cc(NC2COC2)ncn1 [Compound 3-40] | > 10
6 | Cc1nc2c([nH]1)CCN(C[C@@H](O)CNC(=O)c1cc(NC3COC3)ncn1)C2 [Compound 3-41] | > 10
7 | CC(=O)N1CC(Nc2cc(C(=O)NC[C@H](O)CN3CCc4cccnc4C3)ncn2)C1 [Compound 2-13] | 0.101 to 1
8 | CC(=O)N1CCC(Nc2cc(C(=O)NC[C@H](O)CN3CCc4oc(C)nc4C3)ncn2)CC1 [Compound 4-3, (S)-6-((1-acetylpiperidin-4-yl)amino)-N-(2-hydroxy-3-(2-methyl-6,7-dihydrooxazolo[4,5-c]pyridin-5(4H)-yl)propyl)pyrimidine-4-carboxamide] | > 10
9 | CC(=O)N1CC(Nc2cc(C(=O)NC[C@H](O)CN3CCc4sc(N)nc4C3)ncn2)C1 [Compound 1-28] | 1 to 10
10 | Cn1cnc2c1CN(C[C@@H](O)CNC(=O)c1cc(NC3COC3)ncn1)CC2 [Compound 3-26, (S)—N-(2-hydroxy-3-(3-methyl-6,7-dihydro-3H-imidazo[4,5-c]pyridin-5(4H)-yl)propyl)-6-(oxetan-3-ylamino)pyrimidine-4-carboxamide] | > 10
11 | CC(=O)N1CC(Nc2cc(C(=O)NC[C@H](O)CN3CCc4nc(N)sc4C3)ncn2)C1 [Compound 1-29] | 1 to 10
12 | O=C(NC[C@H](O)CN1CCc2ncsc2C1)c1cc(NC2COC2)ncn1 [Compound 1-16, (S)—N-(3-(6,7-dihydrothiazolo[5,4-c]pyridin-5(4H)-yl)-2-hydroxypropyl)-6-(oxetan-3-ylamino)pyrimidine-4-carboxamide] | > 10
13 | CC(=O)N1CC(Nc2cc(C(=O)NC[C@H](O)CN3CCc4c(ncn4C)C3)ncn2)C1 [Compound 3-45] | > 10
14 | CC(=O)N1CCC(Nc2cc(C(=O)NC[C@H](O)CN3CCc4cn[nH]c4C3)ncn2)CC1 [Compound 3-51] | > 10
15 | CC(=O)N1CC(Nc2cc(C(=O)NC[C@H](O)CN3CCCc4c3cnn4C)ncn2)C1 [Compound 3-46] | > 10
16 | CC(=O)N1CCC(Nc2cc(C(=O)NC[C@H](O)CN3CCc4ncsc4C3)ccn2)CC1 [Compound 1-19, (S)-2-((1-acetylpiperidin-4-yl)amino)-N-(3-(6,7-dihydrothiazolo[5,4-c]pyridin-5(4H)-yl)-2-hydroxypropyl)isonicotinamide] | 1 to 10
17 | CC(=O)N1CCC(Nc2cc(C(=O)NC[C@H](O)CN3CCc4sc(N)nc4C3)ccn2)CC1 [Compound 1-34] | 0.101 to 1
18 | CC(=O)N1CCC(Nc2cc(C(=O)NC[C@H](O)CN3CCc4nc(C)sc4C3)ncn2)CC1 [Compound 1-7, (S)-6-((1-acetylpiperidin-4-yl)amino)-N-(2-hydroxy-3-(2-methyl-6,7-dihydrothiazolo[5,4-c]pyridin-5(4H)-yl)propyl)pyrimidine-4-carboxamide] | 1 to 10
19 | CC(=O)N1CCC(Nc2cc(C(=O)NC[C@H](O)CN3CCc4nc(C)[nH]c4C3)ccn2)CC1 [Compound 3-54] | > 10

From patent publication US20170210751A1, “PRMT5 INHIBITORS AND USES THEREOF” (Epizyme, Inc., priority 2014, published 2017)
